In ChEMBL document CHEMBL4422652, “Synthesis and biological evaluation of novel oleanolic acid analogues as potential α-glucosidase inhibitors” (Eur J Med Chem, 2019):
Each block holds one compound with its values, some of them ahead of it. Calls of active or inactive are those of the source. The rule behind the calls is not given here.

Columns and labels:
[1] = Inhibition of baker's yeast alpha-glucosidase using phenol-alphaD-glycopyranoside as substrate preincubated for 10 mins followed by substrate addition and measured after 30 mins; parameters: species or system Saccharomyces cerevisiae
Saccharomyces cerevisiae = assay: Non-competitive inhibition of baker's yeast alpha-glucosidase assessed as Km for substrate using varying levels of phenol-alphaD-glycopyranoside as substrate preincubated for 10 mins followed by substrate addition and measured after 30 mins by double reciprocal plot analysis
[2] = Toxicity in streptozocin-induced diabetic Kunming mouse assessed as effect on body weight at 50 mg/kg, po administered once daily for 18 days measured every 6 days starting from day 1 during compound dosing; format: organism-based; conditions: in vivo
Mus musculus [3] = assay: Hypoglycemic activity in streptozocin-induced diabetic Kunming mouse assessed as blood glucose level at 50 mg/kg, po administered once daily for 18 days measured on day 6 post dose (reference value: 22.31 +/- 1.05 mM); format: functional
Mus musculus [4] = assay: Hypoglycemic activity in streptozocin-induced diabetic Kunming mouse assessed as blood glucose level at 50 mg/kg, po administered once daily for 18 days measured on day 12 post dose (reference value: 23.27 +/- 1.03 mM); format: functional
NIH3T3 = assay: Cytotoxicity against mouse 3T3 cells assessed as growth inhibition measured after 48 hrs by MTT assay; format: cell-based; conditions: NIH3T3, 48 h
Mus musculus [5] = assay: Hypoglycemic activity in streptozocin-induced diabetic Kunming mouse assessed as blood glucose level at 50 mg/kg, po administered once daily for 18 days measured on day 1 post dose (reference value: 18.86 +/- 0.7 mM); format: functional
Mus musculus [6] = assay: Hypoglycemic activity in streptozocin-induced diabetic Kunming mouse assessed as reduction in blood glucose level at 50 mg/kg, po measured at 2 hrs post dose; format: functional, organism-based
Mus musculus [7] = assay: Hypoglycemic activity in streptozocin-induced diabetic Kunming mouse assessed as blood glucose level at 50 mg/kg, po administered once daily for 18 days measured on day 12 post dose (reference value: 23.09 +/- 1.45 mM); format: functional
[8] = Non-competitive inhibition of baker's yeast alpha-glucosidase using varying levels of phenol-alphaD-glycopyranoside as substrate preincubated for 10 mins followed by substrate addition and measured after 30 mins by double reciprocal plot analysis; parameters: species or system Saccharomyces cerevisiae
Mus musculus [9] = assay: Hypoglycemic activity in streptozocin-induced diabetic Kunming mouse assessed as reduction in blood glucose AUC at 50 mg/kg, po treated 30 mins prior to glucose challenge and measured up to 210 mins by OGTT; format: functional, organism-based
Mus musculus [10] = assay: Hypoglycemic activity in streptozocin-induced diabetic Kunming mouse assessed as reduction in blood glucose level at 50 mg/kg, po treated 30 mins prior to glucose challenge and measured up to 210 mins by OGTT; format: functional, organism-based
Mus musculus [11] = assay: Hypoglycemic activity in streptozocin-induced diabetic Kunming mouse assessed as reduction in blood glucose level at 50 mg/kg, po measured at 9 hrs post dose; format: functional, organism-based
Mus musculus [12] = assay: Hypoglycemic activity in streptozocin-induced diabetic Kunming mouse assessed as reduction in blood glucose level at 50 mg/kg, po measured at 7 hrs post dose; format: functional, organism-based
[13] = Inhibition of baker's yeast alpha-glucosidase using PNPG as substrate preincubated for 15 mins followed by substrate addition and measured after 5 mins by spectrophotometric method; parameters: species or system Saccharomyces cerevisiae

Compound: CC1(C)CC[C@@]23CC[C@]4(C)[C@](OC2=O)([C@H](F)C[C@@H]2[C@@]5(C)C/C(=C\c6ccc(Cl)cn6)C(=O)C(C)(C)[C@@H]5CC[C@]24C)[C@@H]3C1
Km (Saccharomyces cerevisiae): 120 µM | Activity [2]: Non-Toxic | Activity (Mus musculus [3]): 20.51 mM | Activity (Mus musculus [4]): 13.13 mM | IC50 (NIH3T3): > 300 µM | Activity (Mus musculus [5]): 17.45 mM | Activity (Mus musculus [6]): Active | Activity (Mus musculus [7]): 18.29 mM | Ki [8]: 1.19 µM | Activity (Mus musculus [9]): Active | Activity (Mus musculus [10]): Active | Activity (Mus musculus [11]): Active | IC50 [1]: 0.72 µM

Compound: CC1(C)CC[C@@]23CC[C@]4(C)[C@](OC2=O)([C@H](F)C[C@@H]2[C@@]5(C)C/C(=C\c6ccc(Br)cc6)C(=O)C(C)(C)[C@@H]5CC[C@]24C)[C@@H]3C1
IC50 [1]: 1.06 µM

Compound: COc1ncc(F)cc1/C=C1\C[C@]2(C)[C@H]3C[C@@H](F)[C@]45OC(=O)[C@@]6(CCC(C)(C)C[C@H]64)CC[C@@]5(C)[C@]3(C)CC[C@H]2C(C)(C)C1=O
IC50 [1]: 2.05 µM

Compound: CC1(C)CC[C@@]23CC[C@]4(C)[C@](OC2=O)([C@H](F)C[C@@H]2[C@@]5(C)C/C(=C\c6ccc(-n7cncn7)cc6)C(=O)C(C)(C)[C@@H]5CC[C@]24C)[C@@H]3C1
IC50 [1]: 3.18 µM

Compound: CC1(C)CC[C@@]23CC[C@]4(C)[C@](OC2=O)([C@H](F)C[C@@H]2[C@@]5(C)C/C(=C\c6ccc(C(F)(F)F)nc6)C(=O)C(C)(C)[C@@H]5CC[C@]24C)[C@@H]3C1
IC50 [1]: 1.86 µM

Compound: Cc1ccc(/C=C2\C[C@]3(C)[C@H]4C[C@@H](F)[C@]56OC(=O)[C@@]7(CCC(C)(C)C[C@H]75)CC[C@@]6(C)[C@]4(C)CC[C@H]3C(C)(C)C2=O)cc1
IC50 [1]: 1.29 µM

Compound: CC1(C)CC[C@]2(C(=O)Oc3ccc(C(=O)/C=C/c4ccc(Br)cc4)cc3)CC[C@]3(C)C(=CC[C@@H]4[C@@]5(C)CCC(=O)C(C)(C)[C@@H]5CC[C@]43C)[C@@H]2C1
IC50 [13]: 2.2 µM

Compound: CC1(C)CC[C@@]23CC[C@]4(C)[C@](OC2=O)([C@H](F)C[C@@H]2[C@@]5(C)C/C(=C\c6cccc(Cl)c6)C(=O)C(C)(C)[C@@H]5CC[C@]24C)[C@@H]3C1
Km (Saccharomyces cerevisiae): 120 µM | Activity [2]: Non-Toxic | Activity (Mus musculus [3]): 24.39 mM | Activity (Mus musculus [4]): 17.52 mM | IC50 (NIH3T3): > 300 µM | Activity (Mus musculus [5]): 20.66 mM | Activity (Mus musculus [6]): Active | Activity (Mus musculus [7]): 23.51 mM | Ki [8]: 1.49 µM | Activity (Mus musculus [9]): Active | Activity (Mus musculus [10]): Active | Activity (Mus musculus [11]): Active | IC50 [1]: 0.98 µM

Now from value to compound, other results behind:

IC50 [1]: 3.43 µM
Compound: CC1(C)CC[C@@]23CC[C@]4(C)[C@](OC2=O)([C@H](F)C[C@@H]2[C@@]5(C)C/C(=C\c6ccccc6)C(=O)C(C)(C)[C@@H]5CC[C@]24C)[C@@H]3C1

IC50 [1]: 1.74 µM
Compound: CC1(C)CC[C@@]23CC[C@]4(C)[C@](OC2=O)([C@H](F)C[C@@H]2[C@@]5(C)C/C(=C\c6ccccc6F)C(=O)C(C)(C)[C@@H]5CC[C@]24C)[C@@H]3C1

IC50 [1]: 1.92 µM
Compound: COc1ccc(/C=C2\C[C@]3(C)[C@H]4C[C@@H](F)[C@]56OC(=O)[C@@]7(CCC(C)(C)C[C@H]75)CC[C@@]6(C)[C@]4(C)CC[C@H]3C(C)(C)C2=O)c(OC)c1

Km (Saccharomyces cerevisiae): 120 µM | Ki [8]: 0.52 µM | IC50 [1]: 0.33 µM
Compound: COc1ccc(/C=C2\C[C@]3(C)[C@H]4C[C@@H](F)[C@]56OC(=O)[C@@]7(CCC(C)(C)C[C@H]75)CC[C@@]6(C)[C@]4(C)CC[C@H]3C(C)(C)C2=O)cc1
Activity (Mus musculus [12]): Active | Activity [2]: Non-Toxic | Activity (Mus musculus [3]): 19.96 mM | Activity (Mus musculus [4]): 13.74 mM | IC50 (NIH3T3): > 300 µM | Activity (Mus musculus [5]): 18.61 mM | Activity (Mus musculus [7]): 17.49 mM | Activity (Mus musculus [9]): Active | Activity (Mus musculus [10]): Active

IC50 [1]: 2.51 µM
Compound: CC1(C)CC[C@@]23CC[C@]4(C)[C@](OC2=O)([C@H](F)C[C@@H]2[C@@]5(C)C/C(=C\c6ccccc6Br)C(=O)C(C)(C)[C@@H]5CC[C@]24C)[C@@H]3C1

IC50 [1]: 1.58 µM
Compound: Cc1ccccc1/C=C1\C[C@]2(C)[C@H]3C[C@@H](F)[C@]45OC(=O)[C@@]6(CCC(C)(C)C[C@H]64)CC[C@@]5(C)[C@]3(C)CC[C@H]2C(C)(C)C1=O

IC50 [1]: 3.29 µM
Compound: COc1cccc(/C=C2\C[C@]3(C)[C@H]4C[C@@H](F)[C@]56OC(=O)[C@@]7(CCC(C)(C)C[C@H]75)CC[C@@]6(C)[C@]4(C)CC[C@H]3C(C)(C)C2=O)c1

IC50 [1]: 2.74 µM
Compound: COc1ccccc1/C=C1\C[C@]2(C)[C@H]3C[C@@H](F)[C@]45OC(=O)[C@@]6(CCC(C)(C)C[C@H]64)CC[C@@]5(C)[C@]3(C)CC[C@H]2C(C)(C)C1=O
